Data published in publication PMC8145107 (Pharmaceutics, 2021).

How the values were obtained:
CYP450 2D6 = CYP450 2D6 (Homo sapiens, UniProt P10635); assay: CYP450 enzyme inhibition, 2D6; format: in vitro ADME; conditions: compound 0.05~50 μM; read-out: IC50 against CYP450 isotype 2D6
[1] = system: HSP27 recombinant protein; assay: HSP27 cross-linking with recombinant protein (Western blot); format: biochemical; conditions: 10 μM, 3 h
Procedure: For polyacrylamide gel electrophoresis (PAGE) and Western blot (WB) analysis, cells were lysed with radioimmunoprecipitation assay (RIPA) buffer (50 mM Tris-HCl [pH 7.5], 150 mM NaCl, 1% NP-40, 0.1% sodium dodecyl sulfate (SDS), and 1% sodium deoxycholate) supplemented with 1 mM Na3VO4, 1 mM dithiothreitol (DTT), 1 mM phenyl-methyl-sulfonyl fluoride (PMSF), and protease inhibitor cocktail (Calbiochem). The samples were boiled for 5 min, and equal amounts of protein were analyzed by SDS-PAGE. […]
Figure S3. […] (A) HSP25 WT protein was pretreated with NAC (N-acetyl-L-cysteine) at 20 mM for 30 min and then treated with J2 or NA49 at 10 μM. After 3 h, the dimerization of proteins was altered. ( B) NCI-H460 cells were tr eated with J2 or NA49 (0, 1, 5, 10 and 20 μM) for 24 h, and cell lysates were detected by Western blot analysis. […]

[2] = system: CHO-K1: Chinese hamster ovary cell line; assay: Cytotoxicity in normal mammalian cells (CHO-K1); format: cell-based; conditions: Cricetulus griseus; CHO-K1, 24 h, 0.01-100 μM; read-out: IC50 of compounds in various normal mammalian cells
CYP1A2 = target: T1, CYP1A2 (Homo sapiens, UniProt P05177); assay: biochemical
T1 sequence (P05177 1-516): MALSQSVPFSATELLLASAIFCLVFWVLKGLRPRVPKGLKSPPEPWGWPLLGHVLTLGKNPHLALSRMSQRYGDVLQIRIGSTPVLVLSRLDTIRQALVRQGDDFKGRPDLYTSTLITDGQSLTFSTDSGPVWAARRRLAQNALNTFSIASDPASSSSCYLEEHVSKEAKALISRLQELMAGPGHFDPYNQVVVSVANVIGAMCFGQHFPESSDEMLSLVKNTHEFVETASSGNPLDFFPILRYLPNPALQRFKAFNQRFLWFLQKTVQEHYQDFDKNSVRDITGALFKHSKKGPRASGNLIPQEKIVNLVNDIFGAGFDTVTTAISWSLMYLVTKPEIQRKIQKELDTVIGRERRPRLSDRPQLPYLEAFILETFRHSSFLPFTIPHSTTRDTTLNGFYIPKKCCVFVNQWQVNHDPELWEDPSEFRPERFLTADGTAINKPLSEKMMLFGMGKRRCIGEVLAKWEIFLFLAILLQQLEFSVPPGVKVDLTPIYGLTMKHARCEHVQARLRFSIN

CYP2C9 = CYP2C9 (Homo sapiens, UniProt P11712); assay: CYP450 enzyme inhibition, 2C9; format: in vitro ADME; conditions: compound 0.05~50 μM; read-out: IC50 against CYP450 isotype 2C9
Procedure: Permeability was evaluated with a parallel artificial membrane permeability (PAMPA) assay using an artificially generated lipid-infused membrane.

NCI-H460 cells [3] = assay: Cell death by PI staining / flow cytometry, NCI-H460; format: cell-based, human; conditions: H460, PI staining, CompuSyn
Procedure: (§1) Cells were plated in 6-well culture plates at a density of 1 × 10^5 cells/well. Compounds were applied to the cells immediately after seeding. When cells were harvested, cells were washed once with 1× phosphate-buffered saline (PBS), dissociated using Trypsin-EDTA, and centrifuged at 13,000 rpm for 3 min at 4 °C. Next, 1 mL of 1× PBS was added to wash the pellet again. Finally, 1 mL of 1× PBS and 1 μg/mL of propidium iodide (PI) were added to each polystyrene round-bottom tube. Flow cytometric analysis was performed using a FACS flow cytometer (BD Bioscience). To measure cell death, 10^4 cells were counted, and PI-stained cells were analyzed. FACS analysis in accordance with the manufacturer’s instruction. […]
(§2) Table S1. CI values of NSCLC cell lines.
(§3) Cell line Combination drug NA 10 µM NA 20 µM
(§4) CI values were calculated from the data of percent inhibition of cell death by PI staining. Each CI
(§5) value was analyzed by CompuSyn software. […]

NCI-H1975 cells = assay: Cell death by PI staining / flow cytometry, NCI-H1975; format: cell-based, human; conditions: NA 10 µM + gefitinib 10 µM, CompuSyn
Procedure: as §1, §2, §3, §4, §5

NCI-H460 xenograft = assay: NCI-H460 tumor xenograft in mice; format: in vivo, BALB/c nude mice; conditions: NA49 20 mg/kg IP every other day + cisplatin 2 mg/kg IP twice a week
Procedure: NCI-H460 single-cell suspension (1 × 10^6 cells) was injected subcutaneously into the hind legs of 6-week-old BALB/c nude mice (Orientbio, Korea). […] NCI-H1650 single-cell suspension (1 × 10^7 cells) was injected subcutaneously into the hind leg of 6-week-old NOD-SCID mice (Koatech, Korea). When tumors reached a minimal volume of 150 mm^3, xenograft mice were treated 7 times with J2 or NA49 by local regional application with or without gefitinib (5 mg/kg) by IP injection. For this, J2 or NA49 (20 mg/kg) was injected by IP every two days, and gefitinib was injected every three days. Tumor volumes were determined according to the formula (L × l^2)/2, by measuring tumor length (L) and width (l) with a caliper. Tumors were measured every other day and allowed to grow for 15 or 34 days. All procedures for animal experiments were in accordance with the guidelines by the Ewha Woman’s University Institutional Animal Care and Use Committee (IACUC, 18-006), Seoul, Korea.

PC9 cells = assay: Cell death by PI staining / flow cytometry, PC9; format: cell-based, human; conditions: NA 10 µM + gefitinib 0.01 µM, CompuSyn
Procedure: as §1, §2, §3, §4, §5

NCI-H1650 cells = assay: Cell death by PI staining / flow cytometry, NCI-H1650; format: cell-based, human; conditions: CompuSyn
Procedure: as §1, §2, §3, §4, §5

HCC827 cells = assay: Cell death by PI staining / flow cytometry, HCC827; format: cell-based, human; conditions: NA 10 µM + gefitinib 0.01 µM, CompuSyn
Procedure: as §1, §2, §3, §4, §5

NCI-H460 cells [4] = assay: MTT viability assay, NCI-H460; format: cell-based, human; conditions: Homo sapiens, 24 h
Procedure: The human NSCLC cell lines of NCI-H460, A549, HCC827, PC9, NCI-H1650, and NCI-H1975 were obtained from the American Type Culture Collection (Rockville, MD, USA). Cells were cultured in RPMI 1640 medium containing 10% FBS, 2 mmol/L L-glutamine, and 100 units/mL of penicillin and streptomycin and maintained at 37 °C in a humidified incubator containing 5% CO2.
Cell viability against gefitinib-, cisplatin-, and NA49-induced toxicity was determined using an MTT (Amersham Pharmacia Biotech) assay in 96-well plates. […] Next, cells were incubated with 100 µL of 5 mg/mL 3-(4,5-dimethylthiazol-2-yl)-2,5-diphenyltetrazolium bromide (Sigma Aldrich, M5655) for 2 h. After the MTT mixture was removed, 100 µL of DMSO was added to each well, and absorbance at 540 nm was measured using an ELISA plate reader (TECAN, Twinfinite PRO).

Sequence of CYP2C9 (P11712 whole entry): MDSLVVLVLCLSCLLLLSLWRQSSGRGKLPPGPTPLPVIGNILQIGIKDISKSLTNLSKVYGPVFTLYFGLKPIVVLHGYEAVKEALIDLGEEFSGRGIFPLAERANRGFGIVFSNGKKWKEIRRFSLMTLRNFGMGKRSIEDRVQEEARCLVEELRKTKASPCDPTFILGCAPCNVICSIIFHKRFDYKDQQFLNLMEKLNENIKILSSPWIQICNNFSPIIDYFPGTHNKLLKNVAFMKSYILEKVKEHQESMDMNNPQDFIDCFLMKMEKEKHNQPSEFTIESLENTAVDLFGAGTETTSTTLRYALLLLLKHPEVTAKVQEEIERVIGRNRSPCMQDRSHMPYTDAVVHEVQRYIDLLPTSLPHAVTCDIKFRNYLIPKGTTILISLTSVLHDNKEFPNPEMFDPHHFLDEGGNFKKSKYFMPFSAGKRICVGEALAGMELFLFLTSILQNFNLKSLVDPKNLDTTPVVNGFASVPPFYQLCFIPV
Sequence of CYP450 2D6 (P10635 whole entry): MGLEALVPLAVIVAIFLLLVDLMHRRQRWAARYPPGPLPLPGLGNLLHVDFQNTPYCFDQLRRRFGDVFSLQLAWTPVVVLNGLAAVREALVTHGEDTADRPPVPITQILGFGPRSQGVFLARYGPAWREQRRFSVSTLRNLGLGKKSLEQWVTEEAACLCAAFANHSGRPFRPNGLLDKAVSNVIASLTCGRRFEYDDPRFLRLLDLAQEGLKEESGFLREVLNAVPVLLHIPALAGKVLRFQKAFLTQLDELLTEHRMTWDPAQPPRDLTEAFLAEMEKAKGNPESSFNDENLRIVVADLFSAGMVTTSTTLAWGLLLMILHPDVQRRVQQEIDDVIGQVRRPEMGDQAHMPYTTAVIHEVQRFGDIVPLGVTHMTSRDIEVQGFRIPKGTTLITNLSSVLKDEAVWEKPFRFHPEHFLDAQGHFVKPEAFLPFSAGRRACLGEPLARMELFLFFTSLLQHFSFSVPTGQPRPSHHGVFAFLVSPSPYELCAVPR

Row | Compound | IC50 (CYP450 2D6) | HSP27 cross-linking activity (altered dimerization) [1] | IC50 [2] | IC50 (CYP1A2) | IC50 (CYP2C9) | CI value (combination index) (NCI-H460 cells [3]; NA 10 µM + cisplatin 3 µM) | CI value (combination index) (NCI-H460 cells [3]; NA 20 µM + cisplatin 3 µM) | CI value (combination index) (NCI-H1975 cells) | Tumor growth, combination with NA49 compared to cisplatin alone (NCI-H460 xenograft) | CI value (combination index) (PC9 cells) | CI value (combination index) (NCI-H1650 cells; NA 10 µM + gefitinib 10 µM) | CI value (combination index) (NCI-H1650 cells; NA 10 µM + gefitinib 20 µM) | CI value (combination index) (HCC827 cells) | IC50 (NCI-H460 cells [4])
1 | Cc1cc(=O)c2c(O)cc(OCC3CS3)cc2o1 (stereo not shown) [J2] | > 50 µM | Altered dimerization of HSP27 | > 100 µM | 0.1 µM | > 50 µM | – | – | – | – | – | – | – | – | –
2 | COc1ccc(-c2coc3cc(OCC4CS4)ccc3c2=O)c(OC)c1 (stereo not shown) [NA49] | > 50 µM | stronger cross-linking activity than J2 | 90.4 µM | > 50 µM | 19.2 µM | 0.942 | 0.969 | 0.392 | greater reduction in tumor growth | 1.84 | 0.828 | 0.487 | 0.651 | 38.1 ± 0.69 µM
